Measurements from patent publication US20190231751A1, “TREATMENT OF FIBROTIC DISORDERS WITH JUN N-TERMINAL KINASE INHIBITORS” (Imago Pharmaceuticals, Inc., priority 2016, published 2019).

What was measured:
Format in all cases: biochemical
[1] = biological target: JNK3 (Homo sapiens, UniProt P53779); assay: In vitro JNK3 inhibition (Table 1)
Method: (§1) In vitro assays for the determination of JNK activities are known in the art and exemplary assay formats are described herein.
(§2) IC50 values in Table 1 were determined using the procedures as described in U.S. Pat. No. 8,450,353.

[2] = biological target: JNK1 (Homo sapiens, UniProt P45983); assay: In vitro JNK1 inhibition (Table 1)
Method: as §1, §2

[3] = biological target: JNK2 (Homo sapiens, UniProt P45984); assay: In vitro JNK2 inhibition (Table 1)
Method: as §1, §2

JNK2, sequence (P45984 whole entry, species assumed): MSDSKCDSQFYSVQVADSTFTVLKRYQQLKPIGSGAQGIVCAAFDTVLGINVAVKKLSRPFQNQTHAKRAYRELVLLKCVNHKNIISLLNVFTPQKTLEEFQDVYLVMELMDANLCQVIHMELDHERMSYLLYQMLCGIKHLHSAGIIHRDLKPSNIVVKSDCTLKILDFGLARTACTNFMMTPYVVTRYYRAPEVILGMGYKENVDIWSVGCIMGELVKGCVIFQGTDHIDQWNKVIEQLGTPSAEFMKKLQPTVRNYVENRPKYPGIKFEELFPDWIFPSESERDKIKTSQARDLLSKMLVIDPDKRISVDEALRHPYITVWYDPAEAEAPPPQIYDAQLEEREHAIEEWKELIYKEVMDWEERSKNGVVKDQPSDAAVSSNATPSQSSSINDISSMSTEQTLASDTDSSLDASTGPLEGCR
JNK3, sequence (P53779 whole entry, species assumed): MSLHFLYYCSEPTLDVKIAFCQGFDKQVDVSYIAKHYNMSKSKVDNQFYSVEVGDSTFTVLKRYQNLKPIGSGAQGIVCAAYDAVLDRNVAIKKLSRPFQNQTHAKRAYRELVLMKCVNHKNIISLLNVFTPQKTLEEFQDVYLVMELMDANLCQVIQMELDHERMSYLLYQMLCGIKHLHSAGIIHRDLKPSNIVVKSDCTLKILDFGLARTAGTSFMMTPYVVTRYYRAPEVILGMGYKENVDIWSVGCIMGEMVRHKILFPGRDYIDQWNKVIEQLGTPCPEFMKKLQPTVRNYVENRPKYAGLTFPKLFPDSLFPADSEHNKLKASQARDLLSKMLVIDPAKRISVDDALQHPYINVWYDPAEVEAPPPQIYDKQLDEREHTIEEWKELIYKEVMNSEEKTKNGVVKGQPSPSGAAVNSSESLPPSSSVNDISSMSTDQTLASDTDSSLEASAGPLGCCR
JNK1, sequence (P45983 whole entry, species assumed): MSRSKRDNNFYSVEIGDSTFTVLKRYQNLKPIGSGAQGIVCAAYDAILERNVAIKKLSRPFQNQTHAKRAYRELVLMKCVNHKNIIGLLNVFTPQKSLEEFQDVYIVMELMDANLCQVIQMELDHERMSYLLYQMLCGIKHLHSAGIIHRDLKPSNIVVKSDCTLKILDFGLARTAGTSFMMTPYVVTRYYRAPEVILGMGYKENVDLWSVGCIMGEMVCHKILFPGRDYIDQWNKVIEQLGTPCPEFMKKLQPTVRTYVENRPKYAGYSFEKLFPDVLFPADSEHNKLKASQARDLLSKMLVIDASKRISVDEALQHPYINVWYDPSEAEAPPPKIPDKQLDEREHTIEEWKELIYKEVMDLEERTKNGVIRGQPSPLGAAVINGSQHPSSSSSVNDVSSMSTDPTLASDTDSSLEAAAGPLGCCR

IC50 [1]	IC50 [2]	IC50 [3]	Compound
< 100 nM	< 100 nM	< 100 nM	O=C(Cc1ccc(F)c2cnccc12)Nc1scc(Br)c1-c1ncn[nH]1 [N-(4-bromo-3-(1H-1,2,4-triazol-5-yl)thiophen-2-yl)-2-(8-fluoroisoquinolin-5-yl)acetamide]
< 100 nM	< 100 nM	< 100 nM	O=C(Cn1c(=O)ccc2cc(C(F)(F)F)ccc21)Nc1scc(Cl)c1-c1ncn(CCCN2CCCC2)n1 [N-(4-chloro-3-(1-(3-(pyrrolidin-1-yl)propyl)-1H-1,2,4-triazol-3-yl)thiophen-2-yl)-2-(2-oxo-6-(trifluoromethyl)quinolin-1(2H)-yl)acetamide]
< 100 nM	100 to 10000 nM	< 100 nM	O=C(Cn1c(=O)ccc2cc(C(F)(F)F)ccc21)Nc1scc(Br)c1-n1nccn1 [N-(4-bromo-3-(2H-1,2,3-triazol-2-yl)thiophen-2-yl)-2-(2-oxo-6-(trifluoromethyl)quinolin-1(2H)-yl)acetamide]
< 100 nM	< 100 nM	< 100 nM	Cn1cnc(-c2c(Cl)csc2NC(=O)Cn2c(=O)ccc3cnc(C(F)(F)F)cc32)n1 [N-(4-chloro-3-(1-methyl-1H-1,2,4-triazol-3-yl)thiophen-2-yl)-2-(2-oxo-7-(trifluoromethyl)-1,6-naphthyridin-1(2H)-yl)acetamide]
< 100 nM	< 100 nM	< 100 nM	N#Cc1ccc2c(ccc(=O)n2CC(=O)Nc2scc(Br)c2-c2ncn[nH]2)c1 [N-(4-bromo-3-(1H-1,2,4-triazol-5-yl)thiophen-2-yl)-2-(6-cyano-2-oxoquinolin-1(2H)-yl)acetamide]
< 100 nM	< 100 nM	< 100 nM	O=C(Cn1c(=O)ccc2cc(Br)ccc21)Nc1scc(Cl)c1-c1nc[nH]n1 [2-(6-bromo-2-oxoquinolin-1(2H)-yl)-N-(4-chloro-3-(1H-1,2,4-triazol-3-yl)thiophen-2-yl)acetamide]

Second part, the molecule before the results:

Compound	IC50 [1]	IC50 [2]	IC50 [3]
O=C(Cn1c(=O)ccn2nc(C(F)(F)F)cc12)Nc1scc(Br)c1-c1ncn[nH]1 [N-(4-bromo-3-(1H-1,2,4-triazol-5-yl)thiophen-2-yl)-2-(5-oxo-2-(trifluoromethyl)pyrazolo[1,5-a]pyrimidin-4(5H)-yl)acetamide]	< 100 nM	< 100 nM	< 100 nM
O=C(Cn1c(=O)ccc2cc(C(F)(F)F)ccc21)Nc1scc(Cl)c1-c1ncn[nH]1 [N-(4-chloro-3-(1H-1,2,4-triazol-5-yl)thiophen-2-yl)-2-(2-oxo-6-(trifluoromethyl)quinolin-1(2H)-yl)acetamide]	< 100 nM	< 100 nM	< 100 nM
N#Cc1csc(NC(=O)Cn2c(=O)ccc3cc(C(F)(F)F)ccc32)c1-c1cscn1 [N-(4-cyano-3-(thiazol-4-yl)thiophen-2-yl)-2-(2-oxo-6-(trifluoromethyl)quinolin-1(2H)-yl)acetamide]	< 100 nM	< 100 nM	< 100 nM
O=C(CN1C(=O)CCc2ccccc21)Nc1scc(Br)c1-c1ncn[nH]1 [N-(4-bromo-3-(1H-1,2,4-triazol-5-yl)thiophen-2-yl)-2-(2-oxo-3,4-dihydroquinolin-1(2H)-yl)acetamide]	< 100 nM	< 100 nM	< 100 nM
O=C(Cn1c(=O)ccc2ccc(C(F)(F)F)cc21)Nc1scc(Br)c1-c1ncn[nH]1 [N-(4-bromo-3-(1H-1,2,4-triazol-5-yl)thiophen-2-yl)-2-(2-oxo-7-(trifluoromethyl)quinolin-1(2H)-yl)acetamide]	< 100 nM	< 100 nM	< 100 nM
CN(C)CCCn1cnc(-c2c(Cl)csc2NC(=O)Cn2c(=O)ccc3cc(C(F)(F)F)ccc32)n1 [N-(4-chloro-3-(1-(3-(dimethylamino)propyl)-1H-1,2,4-triazol-3-yl)thiophen-2-yl)-2-(2-oxo-6-(trifluoromethyl)quinolin-1(2H)-yl)acetamide]	< 100 nM	< 100 nM	< 100 nM
